Key:
GPR119 [1] = biological target: T1, GPR119 (Homo sapiens, UniProt Q8TDV5); test: cAMP accumulation in heterologous expression system, positive control agonist; assay type: cell-based
T1 sequence (Q8TDV5 1-335): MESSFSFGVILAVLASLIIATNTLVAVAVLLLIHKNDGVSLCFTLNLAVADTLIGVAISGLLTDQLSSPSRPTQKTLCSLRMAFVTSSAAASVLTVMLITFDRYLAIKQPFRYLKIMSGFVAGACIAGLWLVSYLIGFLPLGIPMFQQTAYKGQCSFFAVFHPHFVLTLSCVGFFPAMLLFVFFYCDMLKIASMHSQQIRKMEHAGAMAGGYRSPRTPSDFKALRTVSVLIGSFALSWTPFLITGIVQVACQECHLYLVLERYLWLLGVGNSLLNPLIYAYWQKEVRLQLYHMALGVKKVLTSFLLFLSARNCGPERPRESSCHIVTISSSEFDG

GPR119 [2] = biological target: T1, GPR119; test: cAMP accumulation in heterologous expression system; PathHunter β-arrestin […] recruitment (EC50 =[…]); assay type: cell-based

Q: With CCCCCCCC/C=C\CCCCCCCC(=O)NCCO [OEA] as the molecule, how does the “cAMP accumulation in heterologous expression system, positive control agonist” value (GPR119 [1]) read?
A: OEA, the most potent endogenous agonist of GPR119, was used as the positive control.

Q: CCCCCC1OC1C/C=C\C/C=C\C/C=C\CCCC(=O)NCCO (centres unmarked) [14,15-EET-EA] was tested. Which EC50 (GPR119 [2]) did it give?
A: 3.74 µM
